Source: patent US7442375B2, “Compositions of beta-defensin inducing agents” (Case Western Reserve University, priority 2002, dated 2008)
Like-named read-outs stand apart in the source and are kept apart here. Positions of bridges follow the written chain, without caps; N, C: chain ends. No end group written: not given here.

Legend:
hBD-2 mRNA [1] = conditions: 1.7 mM in culture medium, epidermal cells; cited from earlier work
hBD-3 mRNA [2] = conditions: 1.7 mM in culture medium, epidermal cells; cited from earlier work
HIV-1 X4 B-HXB2 = assay type: cell-based
Method: (§1) HIV-1 strains (X4 HXB2 and R5 93US142) were incubated in 10 mM PB with increasing concentrations of hBD and used to infect GHOST X4/R5 cells. (a) Qualitative determination of HIV-1 infection, measured by GFP fluorescence, in the absence (−C) and presence (+C) of virus preincubated in 10 mM PB. (b) Anti-HIV-1 activity of hBD in GHOST X4/R5 cells using fluorescence microscopy. (c) Anti-HIV-1 activity of hBD measured by RT activity in cell-free culture supernatant, relative to the positive control (i.e., HIV-1 infection in the absence of hBD). (d) Antiretroviral activity of hBD against CXCR4- and CCR5-tropic HIV-1 strains in three different environments: DMEM+10% FBS (complete medium); DMEM alone (Medium no FBS); 10 mM PB. Viruses were incubated with 20 μg/ml of each hBD for 1 h in each condition and used to infect CEM X4/R5 cells as described. Results are representative of three independent experiments.
(§2) HIV-1 isolates were incubated with increasing concentrations (5-40 μg/ml) of hBD-1, -2, and -3, in three different conditions: high salt complete medium (RPMI-1640 or DMEM supplemented with 10% fetal bovine serum, FBS); high salt medium in the absence of FBS; or low salt medium (10 mM phosphate buffer), 37° C. for 1 h. Respective mixtures were used to infect PBMC, Ghost X4/R5 or CEM X4/R5 cells at an MOI of […]. After 2 h incubation at 37° C., 5% CO2, cells were washed three times with phosphate-buffered saline (PBS) and cultured in complete medium for 48 h. In the case of Ghost X4/R5 cells, these were washed, resuspended in PBS, and analyzed by fluorescence microscopy for GFP expression as described [Morner et al.]. Cell-free supernatants from PBMC, Ghost X4/R5 and CEM X4/R5 cultures were used to monitor infectivity by the reverse transcriptase (RT) assay [Quinones-Mateu et al.]. The 50% inhibitory concentration (IC50) of each hBD was determined using X4 or R5 HIV-1 isolates. Viruses (0.01 MOI) were incubated with increasing concentrations of hBD-1, -2, and 3 (up to 40 µg/ml) in low salt medium for 1 h and used to infect CEM X4/R5 cells. After 2 h incubation at 37° C., 5% CO2, cells were washed twice with PBS and cultured in complete medium. Supernatant samples were removed on day 5 post-infection and virus production was measured using […] the RT assay [Id.]. Cytotoxicity of hBD was quantified by determining the number of viable cells using a tetrazolium-based colorimetric (MTT) assay [Pauwels et al.].
(§3) Since the antibacterial activity of beta-defensins is sensitive to high salt and serum concentrations, the anti-HIV-1 activity of hBD was initially evaluated in a low salt, serum free environment, mimicking oral mucosal conditions [Mandel et al.]. Two HIV-1 isolates (X4 B-HXB2 and R5 B-93US142) were preincubated for 1 h with increasing concentrations of recombinant hBD-1, -2, and -3, in 10 mM phosphate buffer (PB). GHOST CCR5/CXCR4 cells were then exposed to the mixtures for 48 h in complete medium. […] When CXCR4- and CCR5-tropic HIV-1 strains were preincubated with beta-defensins in high salt medium (DMEM) supplemented with 10% FBS, no antiviral effect was detected (FIG. 4d). However, preincubation in DMEM without FBS inhibited replication of X4, but not R5, HIV-1 isolates (FIG. 4d). Under low salt conditions (i.e., 10 mM PB, no FBS) the 50% inhibitory concentration for both agents against X4 and R5 viruses ranged from 9 to 19 μg/ml and 20 to 40 μg/ml, respectively.

HIV-1 R5 B-93US142 = assay type: cell-based
Method: as §1, §2, §3

hBD-2 mRNA [3] = experiment: Real-time RT-PCR assay to quantify hBD mRNA in NHOEC; assay type: cell-based; conditions: normal human oral epithelium and cells; positive control of FIG. 3
Method: (§4) NHOEC monolayers were exposed to X4 HIV-1 strains B-HXB2 and B-NL4-3 or R5 strains B-93US142 and B-92US660 at an MOI of 0.01 infectious unit/cell. After 48 h, hBD-1, -2, and -3 mRNA expression was determined by real-time PCR. (a) Standard curves generated using the relationship of known number of input templates to the cycle threshold (i.e., PCR cycle number at which the mean fluorescence increases to 10 SD above baseline). Cycle threshold is directly proportional to the log of the input copy equivalents. Linear dynamic ranges and regression values are indicated. (b) Quantification of hBD mRNA in the presence and absence of HIV-1. (c) Comparison of hBD expression relative to the uninfected culture. PMA, phorbol myristate acetate, positive control. Results are representative of three independent experiments.
(§5) RNA was extracted from NHOEC monolayers post HIV-1 challenge [multiplicity of infection (MOI), 0.01 infectious unit/cell] using TRIzol according to the manufacturer's protocol (Invitrogen Life Technologies, Carlsbad, Calif., USA). Human keratin 5 RNA was used to normalize RNA content in each preparation. Intron spanning primers used and PCR conditions for these reactions have been described previously [Krisanaprakorkit et al., 1998 and 2000; Harder et al.]. Each 25-μl PCR mixture consisted of 125 ng RNA, primers (0.4 μM each), 0.4 mM dNTPs, 5 mM MgCl2, a mixture of reverse transcriptase and Taq DNA polymerase, 1 3 PCR buffer, RNase inhibitor (5 U), and SYBR Green dye diluted 1:2500 (Sigma, St. Louis, Mo., USA) as described [Weber et al.]. Standard curves were constructed using RNA generated by transcribing hBD-1, -2, or -3 plasmids using the RiboProbe in vitro transcription system (Promega, Madison, Wis., USA). Concentration of mRNAs was determined by spectrometry at 260 nm. […]
(§6) NHOEC monolayers were challenged with four different HIV-1 strains representing both viral bio-phenotypes (i.e., SI/X4, B-HXB2 and B-NL4-3; NSI/R5, B-93US142 and B-92US660) Forty-eight hours postinfection, hBD-1, -2, and -3 mRNA expression was measured by real-time PCR. […]

hBD-3 mRNA [4] = experiment: as above; assay type: cell-based; conditions: normal human oral epithelium and cells; positive control of FIG. 3
Method: as §4, §5, §6

hBD-1 mRNA = experiment: as above; assay type: cell-based; conditions: normal human oral epithelium and cells; positive control of FIG. 3
Method: as §4, §5, §6

CXCR4 = CXCR4 (Homo sapiens, UniProt P61073); experiment: Flow cytometric analysis of co-receptor surface expression on unstimulated PBMC; assay type: cell-based; parameters: endogenous in cells; host or cells: unstimulated peripheral blood mononuclear cells (PBMC); conditions: 30 μg/ml, 3 h, high salt medium without FBS
Method: (§7) Unstimulated PBMC were treated for 3 hrs with hBD-1, -2, or -3 (30 μg/ml) in DMEM (high salt) in the absence of FBS. The CXCR4 natural ligand SDF-1AE (2 μg/ml) and the CCR5 antagonist PSC-RANTES (100 nM) were used as positive controls. CXCR4 and CCR5 surface expression was calculated using known ratios of QuantiBRITE-PE beads (Becton Dickenson) by flow cytometry. Results are the means of seven experiments±SD.
(§8) Unstimulated PBMC were treated with 30 μg/ml hBD-1, -2, or -3 in high salt medium (RPMI-1640) in the absence of FBS, 3 h. The CXCR4 natural ligand SDF-1α (R&D Systems, Minneapolis, Minn., USA) and the CCR5 antagonist PSC-RANTES were used as controls. Cells were incubated with peridinin chlorophyll protein-conjugated anti-human CD4 antibody, and either phycoerythrin (PE)-conjugated anti-human CXCR4 antibody, PE-conjugated anti-human CCR5 antibody, or PE-conjugated mouse immunoglobulin G2a (IgG2a), isotype standard (PharmMingen, San Diego, Calif., USA) [Salkowitz et al.]. Fluorescence intensity was reported as receptor density by quantitative flow cytometry (FACSCaliber; Becton Dickenson, San Jose, Calif., USA) [Iyer et al.]. Data were analyzed using CELLQuest software (Becton Dickenson).
(§9) Surface expression of CXCR4 was decreased by 51%±18% and 52%±20% (SD) respectively after incubation with 30 μg/ml of hBD-2 or hBD-3 (FIG. 5).

CCR5 = CCR5 (Homo sapiens, UniProt P51681); experiment: as above; assay type: cell-based; parameters: endogenous in cells; host or cells: unstimulated peripheral blood mononuclear cells (PBMC); conditions: 30 μg/ml, 3 h, high salt medium without FBS
Method: as §7, §8, §9

[5] = system: epithelial beta defensin genes; conditions: appears to involve NF-kappaB/rel; cited from earlier work
[6] = 20 μg/ml, preincubation in 10 mM PB
[7] = virus preincubated 1 h with hBD in 10 mM PB, GHOST cells 48 h, GFP fluorescence

Sequence of CCR5 (P51681 whole entry): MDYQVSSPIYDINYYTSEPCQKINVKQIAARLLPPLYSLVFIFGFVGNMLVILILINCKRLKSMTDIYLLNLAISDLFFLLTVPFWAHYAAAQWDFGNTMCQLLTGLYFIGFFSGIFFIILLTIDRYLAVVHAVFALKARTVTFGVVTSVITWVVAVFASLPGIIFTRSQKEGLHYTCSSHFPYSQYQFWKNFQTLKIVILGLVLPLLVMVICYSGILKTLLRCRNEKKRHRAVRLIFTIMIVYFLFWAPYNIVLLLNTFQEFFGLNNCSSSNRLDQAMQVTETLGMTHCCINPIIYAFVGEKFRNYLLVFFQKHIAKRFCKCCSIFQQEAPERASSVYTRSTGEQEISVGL
Sequence of CXCR4 (P61073 whole entry): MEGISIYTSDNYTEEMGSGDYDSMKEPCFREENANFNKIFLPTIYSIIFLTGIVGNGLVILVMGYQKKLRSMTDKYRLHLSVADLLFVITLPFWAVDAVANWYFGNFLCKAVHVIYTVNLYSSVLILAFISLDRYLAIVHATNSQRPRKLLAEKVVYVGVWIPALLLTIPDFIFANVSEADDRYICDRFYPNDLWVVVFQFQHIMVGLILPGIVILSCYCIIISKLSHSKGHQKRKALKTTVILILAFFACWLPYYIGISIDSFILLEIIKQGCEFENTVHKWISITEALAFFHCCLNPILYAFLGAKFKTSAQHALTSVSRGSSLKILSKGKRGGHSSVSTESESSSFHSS

Compound: [Ca+2] [calcium]
- HBD-2 mRNA expression (hBD-2 mRNA [1]): sufficient to induce
- HBD-3 mRNA expression (hBD-3 mRNA [2]): sufficient to induce

Compound: GIGDPVTCLKSGAICHPVFCPRRYKQIGTCGLPGTKCCKKP (disulfide 8-37, 15-30, 20-38) [hBD-2]
- inhibition (RT activity relative to positive control) (HIV-1 X4 B-HXB2; [6]): 61%
- inhibition (RT activity relative to positive control) (HIV-1 R5 B-93US142; [6]): 15%

Compound: CCCCCCCCCCCCCC(=O)O[C@@H]1[C@@H](C)[C@@]2(O)[C@@H](C=C(CO)C[C@]3(O)C(=O)C(C)=C[C@@H]23)[C@@H]2C(C)(C)[C@]12OC(C)=O [phorbol myristate acetate]
- HBD-2 mRNA expression (hBD-2 mRNA [3]): induces
- HBD-3 mRNA expression (hBD-3 mRNA [4]): induces
- HBD-1 mRNA expression (hBD-1 mRNA): not

Compound: hBD-1: Recombinant human β-defensin 1 produced from infection of Sf21 cells with baculovirus constructs (DHYNCVSSGGQCLYSACPIFTKIQGTCYRGKAKCCK; ends and bridges not checked; cysteine pairing not given here; UniProt P60022 33-68, looked up)
- effect on surface expression of CXCR4 (CXCR4): did not affect
- effect on CCR5 expression (CCR5): not altered
- anti-HIV-1 activity (HIV-1 X4 B-HXB2; [7]): no effect
- anti-HIV-1 activity (HIV-1 R5 B-93US142; [7]): no effect

Compound: CC[C@H](C)[C@H](N)C(=O)O [isoleucine-1]
- transcription of epithelial beta defensin genes [5]: can activate transcription
